Results as given in paper PMC5688156, “The natural product carolacton inhibits folate-dependent C1 metabolism by targeting FolD/MTHFD” (Nature Communications, 2017).

Experiments:
ecFolD Q98H = biological target: T1, ecFolD Q98H (Escherichia coli, UniProt P24186, Q98H); assay: ecFolD Q98H mutant dehydrogenase (DH) enzyme assay; format: biochemical, E. coli
T1 construct: His-tag (TEV-cleavable, vector pHis-TEV); made in house; host or cells: E. coli BL21 (DE3)
Description: (6R,S)-5,10-Methylene-5,6,7,8-tetrahydrofolic acid ((6R,S)-5,10-CH2-THF) calcium salt and (6R,S)-5,10-Methenyl-5,6,7,8-tetrahydrofolic acid ((6R,S)-5,10-CH=THF) chloride were purchased from Schircks Laboratories (Bauma, Switzerland) and used as substrates for FolD dehydrogenase and cyclohydrolase enzyme assays, respectively. Only the R-isomer, which accounts for 50% of (6R,S)-5,10-CH2-THF and (6R,S)-5,10-CH=THF, respectively, is used by the enzyme. (6R,S)-5,10-CH2-THF was dissolved in N2-spargeled basic buffer (50 mM Tris-HCl (pH 8.0), 100 mM β-mercaptoethanol) as described by Varshney et al.[25]. (6R,S)-5,10-CH=THF was dissolved in DMSO as a 100 mM stock solution.
Because FolD is a bifunctional enzyme, dehydrogenase and cyclohydrolase activities were determined for FolD enzyme kinetics, respectively. The dehydrogenase activity of FolD was assayed for its substrate 5,10-CH2-THF and cofactor NADP^+ (in the case of MTHFD2, NAD^+ was used as the cofactor) based on monitoring the formation of 5,10-CH=THF, while the cyclohydrolase activity of FolD was determined for its substrate 5,10-CH=THF by monitoring the hydrolysis of […]. The enzyme kinetics for the dehydrogenase activity of all FolDs except hsMTHFD1_DC were determined at 30 °C in 50 mM Tris-HCl (pH 7.5), 30 mM β-mercaptoethanol. […]

ecFolD = biological target: T2, ecFolD (Escherichia coli, UniProt P24186); assay: SPR binding to ecFolD; set-up: species or system E. coli
T2 construct: His-tag (TEV-cleavable, vector pHis-TEV); made in house; host or cells: E. coli BL21 (DE3)
Description: All surface plasmon resonance (SPR) experiments described in this study were performed on a Biacore X100 system. Different FolDs with or without His-tag were coupled on CM5 sensor chips (GE Healthcare) by the amine coupling method using a kit from GE Healthcare Life Sciences (Freiburg, Germany). A pH scouting process was performed before protein immobilization to test the most appropriate buffer and the protein concentration for protein coupling. Finally, 20 μg/mL of ecFolD in 10 mM maleate buffer (pH 6.8), 30 μg/mL of ecFolD Q98H in 10 mM maleate buffer (pH 6.3), 40 μg/mL of ecFolD K54N in 10 mM maleate buffer (pH 5.8), 20 μg/mL of spFolD in 10 mM maleate buffer (pH 6.0) and 15 μg/mL of MTHFD2 (His-tag cleaved) in 10 mM maleate buffer (pH 6.8) were used for coupling. In the protein immobilization procedure, the contact time was calculated based on the pH scouting results to achieve ~3000–5000 relative resonance units (RU). The buffer used in the SPR assays was 1× HBS-P buffer (10 mM HEPES pH 7.4, 150 mM NaCl, 0.05% Tween 20). The 1 mM stock solution of carolacton was prepared in 1× HBS-P buffer and diluted to different concentration ranges by two-fold serial dilution. In the SPR assay, the association time was 180 s and the dissociation time was 600 s. Data analysis was performed using the Biacore evaluation software. […]

CO[C@H](CC(=O)O)[C@@H](C)C(=O)[C@H](C)/C=C(\C)[C@H]1OC(=O)[C@H](O)[C@H](O)/C=C/[C@H](C)CCC[C@@H]1C [carolacton]
IC50 (ecFolD Q98H): 313 nM | IC80 (ecFolD Q98H; read-out: IC80, carolacton inhibition on DH activity): 1930 nM | Kd (ecFolD): 10 nM | koff (ecFolD): 0.01 s⁻¹
